According to US4659710A, “1,7-Naphthyridine derivatives and pharmaceutical compositions” (SS Pharmaceutical Co., Ltd., priority 1985, dated 1987):

How the values were obtained:
[1] = Acute toxicity, mouse; conditions: in vivo, po
[2] = system: spontaneously-beating atrial muscle; assay: Cardiotonic effects: contractile force and heart rate of isolated spontaneously beating atria; design: species or system Hartley male guinea pig; conditions: cumulative
Description: The heart of a Hartley male guinea pig having a body weight of 500-800 g was removed. Its atrial muscles were isolated in Krebs-Henseleit's solution. A spontaneously-beating atrial muscle was suspended, in a bath containing 20 ml of Krebs-Henseleit's solution gassed with 95% O2 +5% CO2 at 32° C. Thereafter, the contractile force and its heart rate were measured. After stabilization, test compounds which were dissolved in a small amount of 1N hydrochloric acid or 0.1N hydrochloric acid and then diluted with a physiological saline, were administered cumulatively ([…]) to evaluate effects on the contractile force. The maximum percent change in increase of the contractile force induced by test compounds was determined and regarded as an index for cardiotonic (positive inotropic) effects. Heart rate increasing or decreasing effects (positive or negative chronotropism) were also observed.

[3] = system: carrageenan-induced swelling of the right hind paw; assay: Anti-inflammatory effects: inhibition of carrageenan-induced hind paw swelling; type: in vivo, Wistar rats; conditions: oral, 60 min before carrageenan, foot volume 3 hours later
Description: After fasting a group of five Wistar rats of 6 weeks old for 18 hours, each test compound dissolved or suspended in a 0.5% solution of sodium carboxymethylcellulose (CMC-Na) was administered orally. Sixty minutes after the administration of the test compound, 0.1 ml of a 1% carrageenan solution was injected into subplanter surface of the right hind paw of each rat. The foot volume (A) was measured 3 hours later. From the foot volume (B) before the administration of carrageenan, the percent swelling ((A-B)/B×100) was calculated and compared with those of control rats.
Inhibition (%)= [formula]

[4] = system: ouabain-induced arrhythmia; assay: Antiarrhythmic effects: amount of ouabain required to induce arrhythmia; type: in vivo, Hartley male guinea pigs; conditions: 10 mg/kg i.v., ouabain infused at 4 μg/kg/min; for amount of ouabain required to induce unequal intervals of R-R wave: control 59.2; for amount of ouabain required to induce ventricular extrasystole or A-V block: control 80.5; for amount of ouabain required to induce ventricular extrasystole or A-V block / amount of ouabain required to induce ventricular fibrillation / amount of ouabain required to induce cardiac arrest: in µg/kg (unit assumed); for amount of ouabain required to induce ventricular fibrillation: control 170.0; for amount of ouabain required to induce cardiac arrest: control 246.6
Description: Using a group of five Hartley male guinea pigs (body weights: 530-990 g), their electrocardiograms were recorded from a limbic lead II under anesthesia with urethane 1.2 g/kg i.p. to investigate the antiarrhythmic effects. Namely, each test compound dissolved in 0.1N hydrochloric acid and diluted with a physiological saline was intravenously administered at a dose of 10 mg/kg. Immediately after the administration of the test compound, ouabain was continuously infused at a rate of 4 μg/kg/min through a polyethylene cannula inserted in the jugular vein of the guinea pigs so as to induce arrhythmia. The antiarrhythmic effects were judged from the amount of ouabain required to induce unequal intervals of R-R wave, ventricular extrasystole or A-V block, ventricular fibrillation and cardiac arrest.

[5] = Acute toxicity, rat; conditions: in vivo, po

Structure (SMILES): CC(=O)Nc1cc2cccnc2c(N(C)C)n1 [Compound No. 16]
- LD50 [1]: > 500 mg/kg
- Chronotropy, % of Control (in parentheses) ([2]; 3 × 10^-5 g/ml): 7.0%
- Inotropy, % of Control ([2]; 3 × 10^-5 g/ml): 36.8%
- Chronotropy, % of Control (in parentheses) ([2]; 3 × 10^-6 g/ml): 1.6%
- Inotropy, % of Control ([2]; 3 × 10^-6 g/ml): 4.5%
- Chronotropy, % of Control (in parentheses) ([2]; 10^-4 g/ml): 19.0%
- Inotropy, % of Control ([2]; 10^-4 g/ml): 103.2%
- Chronotropy, % of Control (in parentheses) ([2]; 10^-5 g/ml): 3.3%
- Inotropy, % of Control ([2]; 10^-5 g/ml): 12.5%

Structure (SMILES): CC(=O)Nc1cc2cccnc2c(NCC(O)CO)n1 (stereo not drawn) [compound 9]
- Inhibition (%) ([3]; 30 mg/kg): 27.1%

Structure (SMILES): Nc1cc2cccnc2c(N2CCOCC2)n1 [Compound No. 3, 6-amino-8-morpholino-1,7-naphthyridine]
- Inhibition (%) ([3]; 100 mg/kg): 55.0%

Structure (SMILES): CCOc1nc(NC(C)=O)cc2cccnc12 [compound 34]
- Chronotropy, % of Control (in parentheses) ([2]; 3 × 10^-5 g/ml): 25.7%
- Inotropy, % of Control ([2]; 3 × 10^-5 g/ml): 38.7%
- Chronotropy, % of Control (in parentheses) ([2]; 3 × 10^-6 g/ml): 10.3%
- Inotropy, % of Control ([2]; 3 × 10^-6 g/ml): 13.3%
- Chronotropy, % of Control (in parentheses) ([2]; 10^-4 g/ml): 46.0%
- Inotropy, % of Control ([2]; 10^-4 g/ml): 89.2%
- Chronotropy, % of Control (in parentheses) ([2]; 10^-5 g/ml): 18.5%
- Inotropy, % of Control ([2]; 10^-5 g/ml): 24.9%
- Chronotropy, % of Control (in parentheses) ([2]; 10^-6 g/ml): 5.3%
- Inotropy, % of Control ([2]; 10^-6 g/ml): 6.3%

Structure (SMILES): Nc1cc2cccnc2c(N2CCN(CCO)CC2)n1 [Compound No. 4]
- amount of ouabain required to induce unequal intervals of R-R wave [4]: 59.1 µg/kg
- amount of ouabain required to induce ventricular extrasystole or A-V block [4]: 78.9
- amount of ouabain required to induce ventricular fibrillation [4]: 216.5
- amount of ouabain required to induce cardiac arrest [4]: 277.5
- Inhibition (%) ([3]; 30 mg/kg): 54.0%
- LD50 [1]: > 1000 mg/kg

Structure (SMILES): CNc1nc(NC(C)=O)cc2cccnc12 [compound 5]
- Chronotropy, % of Control (in parentheses) ([2]; 3 × 10^-5 g/ml): 8.6%
- Inotropy, % of Control ([2]; 3 × 10^-5 g/ml): 29.0%
- Chronotropy, % of Control (in parentheses) ([2]; 3 × 10^-6 g/ml): 3.6%
- Inotropy, % of Control ([2]; 3 × 10^-6 g/ml): 8.6%
- Chronotropy, % of Control (in parentheses) ([2]; 10^-4 g/ml): 13.0%
- Inotropy, % of Control ([2]; 10^-4 g/ml): 59.1%
- Chronotropy, % of Control (in parentheses) ([2]; 10^-5 g/ml): 5.9%
- Inotropy, % of Control ([2]; 10^-5 g/ml): 12.9%
- Chronotropy, % of Control (in parentheses) ([2]; 10^-6 g/ml): 1.7%
- Inotropy, % of Control ([2]; 10^-6 g/ml): 4.7%

Structure (SMILES): CC(=O)Nc1cc2cccnc2c(NCCCO)n1 [Compound No. 8]
- Chronotropy, % of Control (in parentheses) ([2]; 3 × 10^-5 g/ml): 6.8%
- Inotropy, % of Control ([2]; 3 × 10^-5 g/ml): 33.4%
- Chronotropy, % of Control (in parentheses) ([2]; 3 × 10^-6 g/ml): 2.7%
- Inotropy, % of Control ([2]; 3 × 10^-6 g/ml): 9.6%
- Chronotropy, % of Control (in parentheses) ([2]; 10^-4 g/ml): 12.9%
- Inotropy, % of Control ([2]; 10^-4 g/ml): 64.1%
- Chronotropy, % of Control (in parentheses) ([2]; 10^-5 g/ml): 4.0%
- Inotropy, % of Control ([2]; 10^-5 g/ml): 16.4%
- Chronotropy, % of Control (in parentheses) ([2]; 10^-6 g/ml): 1.1%
- Inotropy, % of Control ([2]; 10^-6 g/ml): 4.1%

Structure (SMILES): CC(=O)Nc1cc2cccnc2c(N2CCN(C)CC2)n1 [compound 19]
- amount of ouabain required to induce unequal intervals of R-R wave [4]: 68.9 µg/kg
- amount of ouabain required to induce ventricular extrasystole or A-V block [4]: 146.0
- amount of ouabain required to induce cardiac arrest [4]: 392.1

Structure (SMILES): CC(=O)Nc1cc2cccnc2c(NCc2cccnc2)n1 [Compound No. 13]
- LD50 [1]: > 500 mg/kg
- Chronotropy, % of Control (in parentheses) ([2]; 3 × 10^-5 g/ml): 1.9%
- Inotropy, % of Control ([2]; 3 × 10^-5 g/ml): 52.3%
- Chronotropy, % of Control (in parentheses) ([2]; 3 × 10^-6 g/ml): 1.6%
- Inotropy, % of Control ([2]; 3 × 10^-6 g/ml): 8.7%
- Chronotropy, % of Control (in parentheses) ([2]; 10^-4 g/ml): -11.8%
- Inotropy, % of Control ([2]; 10^-4 g/ml): 92.9%
- Chronotropy, % of Control (in parentheses) ([2]; 10^-5 g/ml): 3.1%
- Inotropy, % of Control ([2]; 10^-5 g/ml): 24.6%
- Chronotropy, % of Control (in parentheses) ([2]; 10^-6 g/ml): 0.2%
- Inotropy, % of Control ([2]; 10^-6 g/ml): 2.6%

Structure (SMILES): CCCCCCCC(=O)Nc1cc2cccnc2c(N2CCN(CCO)CC2)n1 [compound 25]
- Inhibition (%) ([3]; 10 mg/kg): 44.6%

Structure (SMILES): CC(=O)Nc1cc2cccnc2c(N2CCN(CCO)CC2)n1 [Compound No. 22, 6-acetamido-8-[4-(2-hydroxyethyl)-1-piperazinyl]-1,7-naphthyridine]
- amount of ouabain required to induce unequal intervals of R-R wave [4]: 69.6 µg/kg
- amount of ouabain required to induce ventricular extrasystole or A-V block [4]: 109.6
- amount of ouabain required to induce ventricular fibrillation [4]: 285.4
- amount of ouabain required to induce cardiac arrest [4]: 399.3
- Inhibition (%) ([3]; 10 mg/kg): 42.4%
- LD50 [1]: 1600 mg/kg
- LD50 [5]: > 3000 mg/kg
